Values after ≈ are worked out from the molar mass of the structure shown.
Key:
[1] = test system: L5178Y; assay: Cytotoxicity against mouse L5178Y cells by MTT assay; type: functional, cell-based
[2] = test system: SH-SY5Y; assay: Cytotoxicity against human SH-SY5Y cells by MTT assay; type: functional, cell-based
[3] = test system: MCF7; assay: Cytotoxicity against human MCF7 cells after 72 hrs by MTT assay; type: functional, cell-based; details: MCF7, 72 h
[4] = Cytotoxicity against human KATO III cells after 72 hrs by MTT assay; type: functional, cell-based
[5] = test system: MCF7; assay: Cytotoxicity against human MCF7 cells after 48 hrs by MTT assay; type: functional, cell-based
[6] = test system: A549; assay: Cytotoxicity against human A549 cells after 48 hrs by MTT assay; type: functional, cell-based
[7] = test system: SH-SY5Y; assay: Cytotoxicity against human SH-SY5Y cells after 48 hrs by MTT assay; type: functional, cell-based
[8] = test system: PC-3; assay: Cytotoxicity against human PC3 cells after 48 hrs by MTT assay; type: functional, cell-based; details: PC-3, 48 h
[9] = test system: NB-4; assay: Cytotoxicity against human NB4 cells after 48 hrs by MTT assay; type: functional, cell-based; details: NB-4, 48 h
[10] = test system: A549; assay: Cytotoxicity against human A549 cells after 72 hrs by MTT assay; type: functional, cell-based; details: A549, 72 h
[11] = test system: HL-60; assay: Cytotoxicity against human HL60 cells after 72 hrs by MTT assay; type: functional, cell-based; details: HL-60, 72 h
[12] = test system: HepG2; assay: Cytotoxicity against human HepG2 cells after 72 hrs by MTT assay; type: functional, cell-based; details: HepG2, 72 h
[13] = test system: Raji; assay: Cytotoxicity against human Raji cells after 72 hrs by MTT assay; type: functional, cell-based
[14] = test system: NCI-H446; assay: Cytotoxicity against human NCI-H446 cells by MTS assay; type: functional, cell-based
[15] = test system: L02; assay: Cytotoxicity against human L02 cells by MTS assay; type: cell-based
[16] = test system: HepG2; assay: Cytotoxicity against human HepG2 cells by MTT assay; type: functional, cell-based
[17] = test system: MCF7; assay: Cytotoxicity against human MCF7 cells by MTT assay; type: functional, cell-based
[18] = test system: HepG2; assay: Cytotoxicity against human HepG2 cells after 48 hrs by sulforhodamine B assay; type: functional, cell-based
[19] = test system: MCF7; assay: Cytotoxicity against human MCF7 cells after 48 hrs by sulforhodamine B assay; type: functional, cell-based
[20] = test system: A549; assay: Cytotoxicity against human A549 cells by MTT assay; type: functional, cell-based
[21] = test system: NCI-H460; assay: Cytotoxicity against human NCI-H460 cells after 48 hrs by sulforhodamine B assay; type: functional, cell-based; details: nci-h460
[22] = test system: SF-268; assay: Cytotoxicity against human SF268 cells after 48 hrs by sulforhodamine B assay; type: functional, cell-based; details: sf-268
[23] = Homo sapiens, MCF7, 48 h, read-out: IC50
[24] = Homo sapiens, A549, 48 h, read-out: IC50

Q: Which IC50 [1] does the source give for `CC[C@@H](C)C[C@H](/C=C(\C)[C@H](O)[C@H](C)/C=C(\C)[C@H](O)[C@H](C)/C=C/[C@H](O)[C@H](C)/C=C(\C)C=O)CO` here?
A: 4.1 µM

Q: With `COc1ccc(C(CO)C(O)CO)c2oc3c(O)c(O)cc(O)c3c(=O)c12` (stereo not given) as the molecule, how does the IC50 [2] read?
A: 4.2 µM

Q: For `COc1cc(O)c2c(c1)C(=O)[C@@H]1[C@H](C[C@@H](O)[C@@](C)(O)[C@@H]1O)C2=O`, which IC50 [1] is on record?
A: 3.4 µM

Q: With `COc1cc(O)c2c(=O)cc(C)oc2c1[C@@H]1C[C@@H](OC)C(=O)O1` as the molecule, how does the IC50 [3] read?
A: 19.3 µM

Q: What about the IC50 [4] of the same molecule?
A: 23.3 µM

Q: With `C[C@@H](O)[C@@]1(O)C(=O)N2C(C)(C)[C@@H]3Cc4cccc5c4[C@@]4(O[C@@]1(O)[C@@]2(O)[C@H]34)C(=O)N5C` as the molecule, how does the IC50 [5, 23] read?
A: 1.2 to 4.2 µM

Q: And the IC50 [6, 24]?
A: 1.2 to 4.2 µM

Q: What about the IC50 [7] of the same molecule?
A: 1.2 to 4.2 µM

Q: And the IC50 [8]?
A: 1.2 to 4.2 µM

Q: What about the IC50 [9] of the same molecule?
A: 1.2 to 4.2 µM

Q: With `COc1cc(=O)oc(CO)c1[C@H](C)O` as the molecule, how does the IC50 [10] read?
A: 1 to 26.8 µg/mL (≈ 5 to 134 µM)

Q: What about the IC50 [11] of the same molecule?
A: 1 to 26.8 µg/mL (≈ 5 to 134 µM)

Q: And the IC50 [12]?
A: 1 to 26.8 µg/mL (≈ 5 to 134 µM)

Q: What about the IC50 [3] of the same molecule?
A: 1 to 26.8 µg/mL

Q: And the IC50 [13]?
A: 1 to 26.8 µg/mL (≈ 5 to 134 µM)

Q: Which IC50 [14] does the source give for `Cc1cc2c(c3c1C(=O)Oc1c(C)c4c(c(O)c1O3)C(=O)OC4)CO2` here?
A: 63 µM

Q: Which IC50 [2] does the source give for `COC(=O)[C@]1(Cc2ccc(O)c(CC=C(C)C)c2)OC(=O)C(O)=C1c1ccccc1` here?
A: < 10 µM

Q: What about the IC50 [15] of the same molecule?
A: < 10 µM

Q: And the IC50 [16]?
A: < 10 µM

Q: Which IC50 [16] does the source give for `COc1cc(O)c2c(c1)C=C([C@H](O)[C@H](O)C(Cl)Cl)OC2O` (stereo not given in full) here?
A: 39.6 µg/mL

Q: And the IC50 [17]?
A: 17.8 µg/mL (≈ 52.8 µM)

Q: Which results are given for `CN1C(=O)[C@]23O[C@]4(O)[C@@H](O)C(=O)N5C(C)(C)[C@H](Cc6cccc1c62)[C@H]3[C@@]54O`?
A: IC50 [5, 23]: 1.2 to 4.2 µM; IC50 [6, 24]: 1.2 to 4.2 µM; IC50 [7]: 1.2 to 4.2 µM; IC50 [8]: 1.2 to 4.2 µM; IC50 [9]: 1.2 to 4.2 µM

Q: Which IC50 [4] does the source give for `COC(=O)[C@@H](C[C@@H](OC)c1c(OC)cc(O)c2c(=O)cc(C)oc12)OC` here?
A: 21.4 µM

Q: Which IC50 ([5]; mcf7) does the source give for `CC(=O)OCC1=C[C@@H]2[C@H](CCO)[C@@]1(C)CCCC2(C)C` here?
A: 19.1 µM

Q: What about the IC50 ([6]; a549) of the same molecule?
A: 33.2 µM

Q: Which IC50 [5, 23] does the source give for `COc1ccc(CCCO)c2cc(CC(C)=O)oc(=O)c12` here?
A: 2.8 to 8.8 µM

Q: And the IC50 [6, 24]?
A: 2.8 to 8.8 µM

Q: What about the IC50 [7] of the same molecule?
A: 2.8 to 8.8 µM

Q: What about the IC50 [8] of the same molecule?
A: 2.8 to 8.8 µM

Q: And the IC50 [9]?
A: 2.8 to 8.8 µM

Q: For `CCCCC[C@@H]1CC[C@H](C)CCCCC(=O)N[C@@H](Cc2ccc(OCC=C(C)C)cc2)C(=O)O1`, which IC50 [16] is on record?
A: 36.6 µM

Q: Which IC50 [10] does the source give for `COC1=CC(=O)OC2C1[C@H](O)CO[C@H]2O` (stereo not given in full) here?
A: 1 to 26.8 µg/mL (≈ 4.63 to 124 µM)

Q: What about the IC50 [11] of the same molecule?
A: 1 to 26.8 µg/mL (≈ 4.63 to 124 µM)

Q: What about the IC50 [12] of the same molecule?
A: 1 to 26.8 µg/mL (≈ 4.63 to 124 µM)

Q: And the IC50 [3]?
A: 1 to 26.8 µg/mL

Q: What about the IC50 [13] of the same molecule?
A: 1 to 26.8 µg/mL (≈ 4.63 to 124 µM)

Q: Which IC50 [5, 23] does the source give for `COC(=O)CCCN1C(=O)[C@]23O[C@]4(O)[C@@H](O)C(=O)N5C(C)(C)[C@H](Cc6cccc1c62)[C@H]3[C@@]54O` here?
A: < 10 µM

Q: What about the IC50 [7] of the same molecule?
A: < 10 µM

Q: What about the IC50 [8] of the same molecule?
A: < 10 µM

Q: What about the IC50 [9] of the same molecule?
A: < 10 µM

Q: For `CCC(=O)Cc1c(OC)cc(=O)oc1C`, which IC50 [10] is on record?
A: 1 to 26.8 µg/mL (≈ 4.76 to 127 µM)

Q: And the IC50 [11]?
A: 1 to 26.8 µg/mL (≈ 4.76 to 127 µM)

Q: What about the IC50 [12] of the same molecule?
A: 1 to 26.8 µg/mL (≈ 4.76 to 127 µM)

Q: What about the IC50 [3] of the same molecule?
A: 1 to 26.8 µg/mL

Q: What about the IC50 [13] of the same molecule?
A: 1 to 26.8 µg/mL (≈ 4.76 to 127 µM)

Q: With `COc1c(O)cc2c(c1CC=C(C)C)C[C@@H](C)OC2=O` as the molecule, how does the IC50 [2] read?
A: 8.8 µM

Q: Which IC50 ([18]; Homo sapiens, HepG2, 48 h) does the source give for `Cc1cc(O)c(C(=O)c2c(C(=O)O)cc(O)c(O)c2O)c(O)c1` here?
A: 60 µM

Q: What about the IC50 ([19]; Homo sapiens, MCF7, 48 h) of the same molecule?
A: 70 µM

Q: For `C[C@H]1[C@H](O)CCC(C)(C)[C@@]12CC=C(C(=O)O)CC2`, which IC50 [4] is on record?
A: 35 µM

Q: For `COc1cc2c(c3c1OC(C)(C)CC3=O)C[C@@H](C)OC2=O`, which IC50 [15] is on record?
A: 3.8 µM

Q: What about the IC50 [16] of the same molecule?
A: 4 µM

Q: For `COc1ccc2c(c1)N(C(=O)C=C(C)C)C1C2[C@H](O)[C@@]2(O)C(=O)N3CCC[C@H]3C(=O)N2[C@H]1CC(C)(C)O` (stereo not given in full), which IC50 [8] is on record?
A: 30.6 µM

Q: Which IC50 [2] does the source give for `COc1cc(OC)c2c(c1CC=C(C)C)C[C@@H](C)OC2=O` here?
A: 8.5 µM

Q: What about the IC50 [16] of the same molecule?
A: 9.4 µM

Q: Which IC50 [5, 23] does the source give for `CS[C@@]1(CO)C(=O)N(C)[C@@](Cc2cn([C@@]34C[C@@]5(SC)C(=O)N(C)[C@](CO)(SC)C(=O)N5[C@]3(C)Nc3ccccc34)c3ccccc23)(SC)C(=O)N1C` here?
A: 8.3 µg/mL

Q: Which results are given for `COC(=O)CCCN1C(=O)[C@@]23O[C@@]4(O)[C@@]5(O)[C@@H]2[C@@H](Cc2cccc1c23)C(C)(C)N5C(=O)[C@]4(O)[C@@H](C)O`?
A: IC50 [5, 23]: < 10 µM; IC50 [6, 24]: < 10 µM; IC50 [7]: < 10 µM; IC50 [9]: < 10 µM

Q: With `COc1cc(O)c2c(=O)c3c(O)ccc(C(CO)C(O)CO)c3oc2c1O` (stereo not given) as the molecule, how does the IC50 [20] read?
A: 3.6 µM

Q: With `C/C1=C\C(=O)OC[C@]23CCC(C(=O)O)=C[C@H]2O[C@@H]2CC(OC(=O)/C=C\C=C\[C@H]([C@H](C)O)OCC1)[C@@]3(C)[C@]21CO1` (stereo not given in full) as the molecule, how does the IC50 ([18]; hepg2) read?
A: 0.38 µM

Q: What about the IC50 [21] of the same molecule?
A: 0.36 µM

Q: And the IC50 [22]?
A: 0.751 µM

Q: And the IC50 ([19]; mcf7)?
A: 0.17 µM

Q: Which IC50 [20] does the source give for `COc1c(O)cc2c(c1CC=C(C)C)C=C(C)OC2` here?
A: 9.4 µM

Q: And the IC50 [16]?
A: 8.8 µM

From ChEMBL document CHEMBL4411258, “Novel natural compounds from endophytic fungi with anticancer activity” (Eur J Med Chem, 2018)
